# Tested on: liver X receptor α splicing mutant proteins (D5, 5A and 6A)
# Assay: Reporter assay in a transient expression system in HEK293 cells (TATA-LXREx4-luciferase), ligand-dependent transcription activating ability
# Type: cell-based, human
# Settings: three kinds of liver X receptor α splicing mutant proteins
# Description: FIG. 5 is a view showing the results of assessment of the function of liver X receptor α splicing mutant proteins (D5, 5A and 6A) by a reporter assay in a transient expression system in HEK293 cells. […] A non-treated section is represented by white, a 1 μg/ml 22R-hydroxycholesterol-treated section is represented by black, and a 1 μg/ml 25-hydroxycholesterol-treated section is represented by gray. In addition, in each test section, 1 μM 9-cis retinoic acid is contained. Letting a value of luciferase activity in a control section (control) in which only a solvent was added to be 100%, a value of luciferase activity in each test section is shown as a relative value. WT means a normal liver X receptor α.
# A human fetal kidney-derived HEK293 cell strain (ATCC; CRL-1573) was subcultured in a Dulbecco modified Eagle medium (DMEM) containing 10% bovine fetal serum (FBS) from which low-molecular substances had been removed with charcoal dextran, and penicillin (100 unit/ml) and streptomycin ([…]) as an antibiotic, and not containing phenol red at 37° C. under the presence of 5% CO2. The subcultured HEK293 cell strain was seeded on a 10 cm cell culturing dish to about 2×10^6 cells. […]
smiles,measurement,value
CC(C)CC[C@@H](O)[C@@H](C)[C@H]1CC[C@H]2[C@@H]3CC=C4C[C@@H](O)CC[C@]4(C)[C@H]3CC[C@]12C [22R-oxycholesterol],"transcription activating ability depending on ligand, as compared with that of a normal liver X receptor α",extremely weak or not recognized level

# — US20060247421A1, “Liver x receptor alpha splicing mutant protein, gene thereof and utilization of the same” (priority 2003, published 2006)
